Assay results from ChEMBL document CHEMBL5505985 (Eur J Med Chem, 2024).

Legend:
RAW264.7 [1] = assay: Cytotoxicity activity mouse RAW264.7 cells assessed as decrease in survival rate at 50 uM incubated for 48 hrs by MTT assay; type: toxicity, cell-based; conditions: raw264.7, 48 h
RAW264.7 [2] = assay: Cytotoxicity activity mouse RAW264.7 cells assessed as reduction in cell viability at 10 uM incubated for 48 hrs by MTT assay; type: toxicity, cell-based; conditions: raw264.7, 48 h
[3] = target: T1, Prostaglandin G/H synthase 2 (Homo sapiens) (UniProt P35354); assay: Inhibition of human recombinant COX-2 using arachidonic acid as substrate at 10 uM pretreated for 5 mins followed by substrate addition and measured after 2 mins by fluorescence based analysis relative to control; conditions: time 7.0 min
T1 sequence (whole entry): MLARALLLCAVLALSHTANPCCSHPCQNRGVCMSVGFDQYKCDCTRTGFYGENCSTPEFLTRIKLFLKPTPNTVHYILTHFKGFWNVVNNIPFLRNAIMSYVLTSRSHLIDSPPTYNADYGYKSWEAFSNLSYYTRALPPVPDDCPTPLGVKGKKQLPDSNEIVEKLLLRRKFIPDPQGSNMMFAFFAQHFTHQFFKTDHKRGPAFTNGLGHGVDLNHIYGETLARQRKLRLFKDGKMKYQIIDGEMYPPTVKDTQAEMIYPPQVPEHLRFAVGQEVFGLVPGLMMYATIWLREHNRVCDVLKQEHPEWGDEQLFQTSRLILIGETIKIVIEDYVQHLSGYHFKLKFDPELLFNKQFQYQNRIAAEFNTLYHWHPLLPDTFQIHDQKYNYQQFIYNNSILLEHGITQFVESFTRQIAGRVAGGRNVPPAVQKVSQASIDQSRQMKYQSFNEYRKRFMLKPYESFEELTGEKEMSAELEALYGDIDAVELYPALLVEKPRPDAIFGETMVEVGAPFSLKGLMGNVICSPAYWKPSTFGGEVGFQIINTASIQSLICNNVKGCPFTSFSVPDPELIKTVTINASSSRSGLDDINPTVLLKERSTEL

Row | inhibition [3] [%] | SMILES | Activity (RAW264.7 [1]) | Activity (RAW264.7 [2])
1 | – | Clc1ccc(C2=Nn3c(Cc4ccccc4Nc4c(Cl)cccc4Cl)nnc3SC2)cc1 | Toxic | Non-Toxic
2 | – | O=[N+]([O-])c1ccccc1C1=Nn2c(Cc3ccccc3Nc3c(Cl)cccc3Cl)nnc2SC1 | – | Non-Toxic
3 | – | Fc1ccccc1CSc1nnc(Cc2ccccc2Nc2c(Cl)cccc2Cl)o1 | – | Non-Toxic
4 | < 30 | Clc1cccc(CSc2nnc(Cc3ccccc3Nc3c(Cl)cccc3Cl)o2)c1 | – | Non-Toxic
5 | – | CC(C)Sc1nnc(Cc2ccccc2Nc2c(Cl)cccc2Cl)o1 | – | Non-Toxic
6 | < 30 | Clc1ccccc1CSc1nnc(Cc2ccccc2Nc2c(Cl)cccc2Cl)o1 | – | Non-Toxic
7 | < 30 | Clc1ccc(CSc2nnc(Cc3ccccc3Nc3c(Cl)cccc3Cl)o2)cc1 | – | Non-Toxic
8 | – | Fc1cccc(C2=Nn3c(Cc4ccccc4Nc4c(Cl)cccc4Cl)nnc3SC2)c1 | – | Non-Toxic
9 | – | Clc1cccc(Cl)c1Nc1ccccc1Cc1nnc2n1N=C(c1ccc(Br)cc1)CS2 | – | Non-Toxic
10 | – | COc1ccc(CSc2nnc(Cc3ccccc3Nc3c(Cl)cccc3Cl)o2)cc1 | – | Non-Toxic
11 | – | Cc1cccc(CSc2nnc(Cc3ccccc3Nc3c(Cl)cccc3Cl)o2)c1 | – | Non-Toxic
12 | – | Clc1cccc(Cl)c1Nc1ccccc1Cc1nnc(SCC2CCCCC2)o1 | – | Non-Toxic
13 | – | COc1cccc(C2=Nn3c(Cc4ccccc4Nc4c(Cl)cccc4Cl)nnc3SC2)c1 | – | Non-Toxic
14 | – | Fc1ccc(CSc2nnc(Cc3ccccc3Nc3c(Cl)cccc3Cl)o2)cc1 | – | Non-Toxic
15 | – | Clc1cccc(Cl)c1Nc1ccccc1Cc1nnc2n1N=C(c1ccccc1)CS2 | – | Non-Toxic
16 | – | COc1ccc(C2=Nn3c(Cc4ccccc4Nc4c(Cl)cccc4Cl)nnc3SC2)cc1 | – | Non-Toxic
17 | – | Cc1ccc(CSc2nnc(Cc3ccccc3Nc3c(Cl)cccc3Cl)o2)cc1 | – | Non-Toxic
18 | – | Fc1cccc(CSc2nnc(Cc3ccccc3Nc3c(Cl)cccc3Cl)o2)c1 | – | Non-Toxic
19 | – | Clc1cccc(Cl)c1Nc1ccccc1Cc1nnc(SCc2ccccc2)o1 | – | Non-Toxic

Row | inhibition [3] [%] | SMILES | Activity (RAW264.7 [1]) | Activity (RAW264.7 [2])
20 | – | Clc1cccc(Cl)c1Nc1ccccc1Cc1nnc(SC2CCCCC2)o1 | – | Non-Toxic
21 | – | O=C(Cc1ccccc1Nc1c(Cl)cccc1Cl)NN1C(=O)c2ccccc2C1=O | Toxic | Non-Toxic
22 | – | CCCCSc1nnc(Cc2ccccc2Nc2c(Cl)cccc2Cl)o1 | – | Non-Toxic
23 | – | Clc1cccc(Cl)c1Nc1ccccc1Cc1nnc2n1N=C(c1cccc(Br)c1)CS2 | Toxic | Non-Toxic
24 | – | N#Cc1ccc(CSc2nnc(Cc3ccccc3Nc3c(Cl)cccc3Cl)o2)cc1 | – | Non-Toxic
25 | – | Clc1cccc(Cl)c1Nc1ccccc1Cc1nnc(SCc2cccc(Br)c2)o1 | – | Non-Toxic
26 | – | CSc1nnc(Cc2ccccc2Nc2c(Cl)cccc2Cl)o1 | – | Non-Toxic
27 | – | CCCSc1nnc(Cc2ccccc2Nc2c(Cl)cccc2Cl)o1 | – | Non-Toxic
28 | – | Clc1cccc(Cl)c1Nc1ccccc1Cc1nnc(SCc2ccc(Br)cc2)o1 | – | Non-Toxic
29 | – | O=[N+]([O-])c1ccc(C2=Nn3c(Cc4ccccc4Nc4c(Cl)cccc4Cl)nnc3SC2)cc1 | – | Non-Toxic
30 | – | Clc1cccc(Cl)c1Nc1ccccc1Cc1nnc(SCc2ccncc2)o1 | Toxic | Non-Toxic
31 | – | CCSc1nnc(Cc2ccccc2Nc2c(Cl)cccc2Cl)o1 | – | Non-Toxic
32 | – | O=C(Cc1ccccc1Nc1c(Cl)cccc1Cl)NN1C(=O)CCC1=O | – | Non-Toxic
33 | – | Clc1cccc(Cl)c1Nc1ccccc1Cc1nnc2n1N=C(c1ccccc1Br)CS2 | – | Non-Toxic
34 | – | Fc1ccc(CSc2nnc(Cc3ccccc3Nc3c(Cl)cccc3Cl)o2)c(F)c1 | – | Non-Toxic
35 | – | Cc1ccccc1CSc1nnc(Cc2ccccc2Nc2c(Cl)cccc2Cl)o1 | – | Non-Toxic
36 | – | Clc1cccc(C2=Nn3c(Cc4ccccc4Nc4c(Cl)cccc4Cl)nnc3SC2)c1 | Toxic | Non-Toxic
37 | – | Fc1ccc(C2=Nn3c(Cc4ccccc4Nc4c(Cl)cccc4Cl)nnc3SC2)cc1 | Toxic | Non-Toxic
